In the assay the test system is BDF1 mice, P388 leukemia ip, median survival T/C. Kind of assay: NCI In Vivo Anticancer Drug Screen. Data for tumor model P388 Leukemia (intraperitoneal) in B6D2F1 (BDF1) mice. To be noted: endpoint: median survival time, higher = longer survival. An outline of the steps:
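Compound-treated tumour-bearing mice were compared with vehicle-treated controls. Survival was recorded, and the value is the treated-group measurement divided by the control-group measurement (T/C).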

Setting [1] is: dose: 100.0 mg/kg/injection, schedule: Q01DX009 (ip), vehicle: Klucel (hydroxypropylcellulose) (HPC).
[2] abbreviates: dose: 50.0 mg/kg/injection, schedule: Q01DX009 (ip), vehicle: saline with Tween-80.
Setting [3] is: dose: 6.25 mg/kg/injection, schedule: Q01DX009 (ip), vehicle: saline with Tween-80.
[4] abbreviates: dose: 12.5 mg/kg/injection, schedule: Q01DX009 (ip), vehicle: saline with Tween-80.
Setting [5] is: dose: 25.0 mg/kg/injection, schedule: Q01DX009 (ip), vehicle: saline with Tween-80.
The mark [6] stands for this setting: dose: 100.0 mg/kg/injection, schedule: Q01DX009 (ip), vehicle: saline with Tween-80.
Where [7] appears, read: dose: 200.0 mg/kg/injection, schedule: Q01DX009 (ip), vehicle: saline with Tween-80.

The structures appear in SMILES notation. “And” between values parts separate entries of the source, which are not always exact repeats. Equal values may be shown once. Inconclusive results and toxic doses are left out.

For `CC(C)(C)CSc1ccccc1SCC(C)(C)C`, the T/C was 107 % of control (dose: 50.0 mg/kg/injection, schedule: Q04DX002 (ip), vehicle: saline with Tween-80); 98 % of control (dose: 100.0 mg/kg/injection, schedule: Q04DX002 (ip), vehicle: saline with Tween-80); 93 % of control (dose: 200.0 mg/kg/injection, schedule: Q04DX002 (ip), vehicle: saline with Tween-80).

In the case of `CCCCCCCCCCCCCCCCNC(=S)Nc1ccc(C(=O)O)cc1`, the T/C by setting is: (dose: 50.0 mg/kg/injection, schedule: Q01DX001 (ip), vehicle: Klucel (hydroxypropylcellulose) (HPC)) 113 % of control; (dose: 100.0 mg/kg/injection, schedule: Q01DX001 (ip), vehicle: Klucel (hydroxypropylcellulose) (HPC)) 109 % of control; (dose: 200.0 mg/kg/injection, schedule: Q01DX001 (ip), vehicle: Klucel (hydroxypropylcellulose) (HPC)) 100 % of control.

Consider `O=C(/C=C/C(=O)Oc1ccccc1)Oc1ccccc1`, for which the T/C is 90 % of control under setting [1]; 109 % of control (dose: 200.0 mg/kg/injection, schedule: Q01DX009 (ip), vehicle: Klucel (hydroxypropylcellulose) (HPC)); 90 % of control (dose: 400.0 mg/kg/injection, schedule: Q01DX009 (ip), vehicle: Klucel (hydroxypropylcellulose) (HPC)).

With `COc1ccc(Br)cc1/C=C/[N+](=O)[O-]`, under setting [2], the T/C is 87 % of control.

Turning to `O=[N+]([O-])c1ccc(N/N=C(\c2ccccc2)c2ccsc2)c([N+](=O)[O-])c1`, the T/C reads like this: under setting [3], 103 % of control; under setting [4], 100 % of control; under setting [5], 96 % of control; under setting [2], 92 % of control.

For `CCC1CN2CCc3cc(O)c(O)cc3C2CC1CC1NCCc2c1[nH]c1ccc(O)cc21` (configuration not stated), the T/C is 161 % of control (dose: 1.0 mg/kg/injection, schedule: Q01DX009 (ip), vehicle: Klucel (hydroxypropylcellulose) (HPC)) and 163 % of control (dose: 2.0 mg/kg/injection, schedule: Q01DX009 (ip), vehicle: Klucel (hydroxypropylcellulose) (HPC)).

As for `COC(=O)/C(=C/c1ccccc1)c1ccccc1`, the T/C reads like this: under setting [2], 101 % of control; under setting [6], 99 % of control; under setting [7], 96 % of control.

Take `CCCCCCCCCCCc1n(Cc2ccccc2)cc[n+]1C`: the T/C is, setting by setting: (dose: 0.75 mg/kg/injection, schedule: Q01DX009 (ip), vehicle: saline) 117 % of control; (dose: 1.5 mg/kg/injection, schedule: Q01DX009 (ip), vehicle: saline) 114 % of control; (dose: 1.5 mg/kg/injection, schedule: Q04DX003 (ip), vehicle: saline) 100 % of control; (dose: 3.0 mg/kg/injection, schedule: Q01DX009 (ip), vehicle: saline) 114 % of control; (dose: 3.0 mg/kg/injection, schedule: Q04DX003 (ip), vehicle: saline) 115 % of control.

`CN1CCN(CCNc2ccc(CO)c3sc4ccccc4c(=O)c23)CC1`: the T/C reads like this: (dose: 25.0 mg/kg/injection, schedule: Q01DX009 (ip), vehicle: Klucel (hydroxypropylcellulose) (HPC)) 120 % of control; (dose: 50.0 mg/kg/injection, schedule: Q01DX009 (ip), vehicle: Klucel (hydroxypropylcellulose) (HPC)) 109 % of control; under setting [1], 151 % of control.

Consider `[NH-]C(CCC(N)=O)C(=O)O.[NH-]C(CCC(N)=O)C(=O)O.[Pt+2]` (configuration not stated), for which the T/C runs as follows: (dose: 12.5 mg/kg/injection, schedule: Q01DX009 (ip), vehicle: distilled water + Tween-80) 100 % of control; (dose: 25.0 mg/kg/injection, schedule: Q01DX009 (ip), vehicle: distilled water + Tween-80) 100 % of control; (dose: 50.0 mg/kg/injection, schedule: Q01DX009 (ip), vehicle: distilled water + Tween-80) 100 % of control; (dose: 100.0 mg/kg/injection, schedule: Q01DX009 (ip), vehicle: distilled water + Tween-80) 113 % of control.

Take `Nc1nc([Se])c2ncn(C3OC(CO)C(O)C3O)c2n1` (configuration not stated): for the setting “dose: 32.0 mg/kg/injection, schedule: Q01DX009 (ip), vehicle: saline”, the T/C was 100 % of control.

For `CC1OC2CC(=O)OC2C2=C1C(=O)c1c(O)c3c(c(O)c1C2=O)C1CC(O)C3(O)C(C)O1` (configuration not stated), the T/C runs as follows: (dose: 2.5 mg/kg/injection, schedule: Q01DX010 (ip), vehicle: saline) 115 % of control; (dose: 5.0 mg/kg/injection, schedule: Q01DX010 (ip), vehicle: saline) 115 % of control; (dose: 10.0 mg/kg/injection, schedule: Q01DX010 (ip), vehicle: saline) 115 % of control.

As to `COC(=O)C(Br)c1cccc(OC)c1` (configuration not stated), the T/C runs as follows: (dose: 58.5 mg/kg/injection, schedule: Q01DX009 (ip), vehicle: saline with Tween-80) 100 % of control; (dose: 88.0 mg/kg/injection, schedule: Q01DX009 (ip), vehicle: saline with Tween-80) 100 % of control; (dose: 132.0 mg/kg/injection, schedule: Q01DX009 (ip), vehicle: saline with Tween-80) 90 % of control; under setting [7], 100 % of control and 120 % of control.

As for `S=C1SCN(CCc2ccccc2)CN1CCc1ccccc1`, the T/C is 111 % of control under setting [3], 102 % of control under setting [4], 104 % of control under setting [5] and 100 % of control under setting [2].

Take `c1c[nH]cn1`: the T/C is, setting by setting: (dose: 100.0 mg/kg/injection, schedule: Q01DX009 (ip), vehicle: saline) 90 % of control; (dose: 100.0 mg/kg/injection, schedule: Q04DX003 (ip), vehicle: saline) 95 % of control; (dose: 200.0 mg/kg/injection, schedule: Q01DX009 (ip), vehicle: saline) 100 % of control; (dose: 200.0 mg/kg/injection, schedule: Q04DX003 (ip), vehicle: saline) 104 % of control; (dose: 400.0 mg/kg/injection, schedule: Q01DX009 (ip), vehicle: saline) 118 % of control; (dose: 400.0 mg/kg/injection, schedule: Q04DX003 (ip), vehicle: saline) 95 % of control.

As to `CCOC(=O)N/N=C\c1cc(OC)c(OC)c(OC)c1`, the T/C runs as follows: under setting [3], 95 % of control; under setting [4], 90 % of control; under setting [5], 90 % of control; under setting [2], 90 % of control; (dose: 50.0 mg/kg/injection, schedule: Q04DX003 (ip), vehicle: saline with Tween-80) 100 % of control; (dose: 100.0 mg/kg/injection, schedule: Q04DX003 (ip), vehicle: saline with Tween-80) 108 % of control. For the same compound, the T/C (dose: 200.0 mg/kg/injection, schedule: Q04DX003 (ip), vehicle: saline with Tween-80) was 104 % of control.

Consider `CC1(C)COP(OCC(F)(F)F)OC1`, for which the T/C is, setting by setting: (dose: 25.0 mg/kg/injection, schedule: Q01DX005 (ip), vehicle: saline with Tween-80) 92 % of control; (dose: 50.0 mg/kg/injection, schedule: Q01DX005 (ip), vehicle: saline with Tween-80) 94 % of control; (dose: 100.0 mg/kg/injection, schedule: Q01DX005 (ip), vehicle: saline with Tween-80) 94 % of control.

For `O=C(OCCCCOC(=O)c1cccc([N+](=O)[O-])c1)c1cccc([N+](=O)[O-])c1`, the T/C is 115 % of control (dose: 3.0 mg/kg/injection, schedule: Q04DX003 (ip), vehicle: saline with Tween-80); 110 % of control (dose: 6.0 mg/kg/injection, schedule: Q04DX003 (ip), vehicle: saline with Tween-80); 120 % of control (dose: 12.0 mg/kg/injection, schedule: Q04DX003 (ip), vehicle: saline with Tween-80).

`Cc1ccc(S(=O)(=O)Oc2ccc(-c3ccc(Br)cc3)cc2)cc1`: the T/C reads like this: under setting [2], 96 % of control; under setting [6], 96 % of control; under setting [7], 101 % of control; (dose: 400.0 mg/kg/injection, schedule: Q01DX009 (ip), vehicle: saline with Tween-80) 92 % of control.

In the case of `NC1CC2(CCC1=O)c1ccccc1-c1ccccc12` (configuration not stated), the T/C is 96 % of control (dose: 25.0 mg/kg/injection, schedule: Q01DX001 (ip), vehicle: saline with Tween-80); 94 % of control (dose: 50.0 mg/kg/injection, schedule: Q01DX001 (ip), vehicle: saline with Tween-80); 97 % of control (dose: 100.0 mg/kg/injection, schedule: Q01DX001 (ip), vehicle: saline with Tween-80).

`O=C(O)c1ccccc1NC(=O)C(F)(F)F`: the T/C runs as follows: (dose: 25.0 mg/kg/injection, schedule: Q04DX003 (ip), vehicle: saline sonified) 91 % of control; (dose: 50.0 mg/kg/injection, schedule: Q04DX003 (ip), vehicle: saline sonified) 91 % of control; (dose: 100.0 mg/kg/injection, schedule: Q04DX003 (ip), vehicle: saline sonified) 91 % of control.
